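How tested: cells in 96-well plates exposed to compound for 48 hours at five concentrations. TGI: total growth inhibition.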
How the values were obtained:
Experiment in all cases: inhibition of tumour cell growth, NCI panel, 48 h
LOX IMVI melanoma = system: LOX IMVI melanoma
SR leukemia = system: SR leukemia
NCI-H23 lung = system: NCI-H23 lung
EKVX NSCLC = system: EKVX NSCLC
BT-549 breast = system: BT-549 breast
HOP-62 NSCLC = system: HOP-62 NSCLC
SF-295 CNS = system: SF-295 CNS
NCI/ADR-RES ovarian = system: NCI/ADR-RES ovarian
HL-60(TB) leukemia = system: HL-60(TB) leukemia
SK-MEL-28 melanoma = system: SK-MEL-28 melanoma

SMILES	TGI (LOX IMVI melanoma)	TGI (SR leukemia)	TGI (NCI-H23 lung)	TGI (EKVX NSCLC)	TGI (BT-549 breast)	TGI (HOP-62 NSCLC)	TGI (SF-295 CNS)	TGI (NCI/ADR-RES ovarian)	TGI (HL-60(TB) leukemia)	TGI (SK-MEL-28 melanoma)
O=C1c2cc([N+](=O)[O-])ccc2NC2C(O)c3ccccc3N12 (stereo not given)	> 100 µM	56.2 µM	72.5 µM	43 µM	61.4 µM	> 100 µM	> 100 µM	63.1 µM		
CC1(C)CC(=O)C(/C=N/c2nc(-c3ccc(Br)cc3)cs2)=C(O)C1	52.4 µM		83.9 µM	> 100 µM	37.8 µM	> 100 µM	> 100 µM	> 100 µM	> 100 µM	> 100 µM
CC(=O)Oc1ccc2cc(Oc3ccc(Cl)cc3)c(=O)oc2c1	> 100 µM	> 100 µM	> 100 µM	> 100 µM	83.8 µM	> 100 µM	99 µM		> 100 µM	> 100 µM
O=C(c1ccccc1F)c1c(NCc2ccccc2)c(=O)c1=O	> 100 µM		> 100 µM	> 100 µM	> 100 µM	> 100 µM	> 100 µM	> 100 µM	> 100 µM	> 100 µM
c1ccc2c3c(ccc2c1)CSCc1ccc2ccccc2c1-3	> 100 µM	> 100 µM	> 100 µM	> 100 µM	> 100 µM	> 100 µM	> 100 µM	> 100 µM		> 100 µM
CN(C)c1ccc(-c2nc(-c3cc4c(ccc5ccccc54)oc3=O)cs2)cc1	> 100 µM	> 100 µM		> 100 µM	> 100 µM	> 100 µM	> 100 µM	> 100 µM	> 100 µM	> 100 µM
CCCCCCCCCCCCOC1C(COCCN2CCCC2)OC2OC(C)(C)OC21 (stereo not given)	2.77 µM	2.91 µM	3.48 µM	10.2 µM	3.22 µM	3.2 µM	3.28 µM	4.37 µM		3.12 µM
CCOC(=O)C1C/C(C)=C(/C)SCCCS1 (stereo not given)	> 100 µM	> 100 µM	> 100 µM	> 100 µM		> 100 µM	> 100 µM	> 100 µM	54.6 µM	> 100 µM
CN(C)c1ccc(C(=NNC(=O)c2cc3ccccc3[nH]2)c2ccc(N(C)C)cc2)cc1	> 100 µM	> 100 µM	> 32.9 µM	> 100 µM	> 44.8 µM	33.7 µM	5.52 µM		0.678 µM	
O=C1c2cc(Cl)ccc2-n2c(noc2=O)C2CSCN12 (stereo not given)	> 100 µM	> 100 µM		> 100 µM	> 100 µM	> 100 µM	> 100 µM	> 100 µM		> 100 µM
COc1ccc(Cn2nc(OCc3ccccn3)c3cc([N+](=O)[O-])ccc32)cc1	> 100 µM	> 100 µM	> 100 µM		> 100 µM	> 100 µM	> 100 µM	> 100 µM	> 100 µM	> 100 µM
Cn1c(N)c(/C=N/NC(=O)CC#N)c(=O)n(C)c1=O	> 100 µM	> 100 µM		> 100 µM	> 100 µM	> 100 µM	> 100 µM	> 100 µM		> 100 µM
Cc1nc2c(n1Cc1ccc(Cl)cc1)C(=O)c1ccccc1C2=O	> 75 µM	> 75 µM	> 75 µM	> 75 µM		> 75 µM	> 75 µM		> 75 µM	> 75 µM
C/C(=N\N=C(N)N)c1c(C(=O)OCCCCCCOC(=O)c2nc3sccn3c2/C(C)=N/N=C(N)N)nc2sccn12	> 100 µM	41.2 µM	> 100 µM	> 100 µM	> 100 µM			> 100 µM	> 100 µM	> 100 µM
C#CC(C)(C)Oc1cc(OC)c2c(=O)c3ccccc3n(C)c2c1		14.9 µM		74.5 µM		> 100 µM	51.8 µM	83.4 µM	28.7 µM	42.6 µM
CSc1c(C(C)=O)c(O)n(-c2ccc(Cl)cc2)c(=O)c1C#N	> 100 µM	> 100 µM	> 100 µM	> 100 µM	> 100 µM			> 100 µM	46.9 µM	> 100 µM
CC(C)=CCN(N=O)c1ncnc2nc[nH]c12	> 100 µM	> 100 µM	> 100 µM	> 100 µM		> 100 µM	> 100 µM	> 100 µM	> 100 µM	> 100 µM
CC1=NNC(N)=N/C1=C/C(Sc1ccc(Cl)cc1)c1cccs1 (stereo not given)	> 100 µM		52 µM	30.3 µM	> 100 µM	28.7 µM	31.3 µM	> 100 µM		39.7 µM
NC1=NS(=O)(=O)N=C(N)C1=Cc1ccc([N+](=O)[O-])o1	33.2 µM	29.2 µM	31.4 µM	32.5 µM			61.8 µM		> 100 µM	29.5 µM
Cc1ccc(-c2cc(-c3ccc(Cl)cc3)nc(/N=C3\C(=O)N(CN4CCCCC4)c4ccc(Cl)cc43)n2)cc1	53 µM		51.5 µM	> 100 µM	> 100 µM	98.2 µM	> 100 µM	62.4 µM	62.4 µM	> 100 µM
CCCCn1cc(C(=O)O)c(=O)c2c3sccc3ccc21	> 100 µM		> 100 µM	> 100 µM	> 100 µM	> 100 µM	> 100 µM	43.4 µM	> 100 µM	> 100 µM
O=C(C[C@@H]1NCCC[C@H]1O)Cn1cnc2cc(Br)c(Cl)cc2c1=O	0.0268 µM		0.11 µM	0.803 µM	0.259 µM	1.01 µM	0.337 µM	0.603 µM		0.119 µM
CCCCN(CCCC)C(=NCc1ccccc1)NC#N	30.4 µM		58.5 µM	73.5 µM		55.5 µM	35.6 µM		35.7 µM	
Cc1cccc(NC(=O)CC(=O)N2N=C(N3c4ccccc4Sc4ccccc43)CC2c2ccccc2)c1 (stereo not given)		> 100 µM	> 100 µM	> 100 µM	> 100 µM	> 100 µM	> 100 µM	> 100 µM	> 100 µM	> 100 µM

— PubChem BioAssay (NCI)
